Patent publication US9663496B2, “AMPK-activating heterocyclic compounds and methods for using the same” (Rigel Pharmaceuticals, Inc., priority 2010, dated 2017)

Target: AMPK
Test: AMPK activation, enzyme-linked immunosorbent assay
Assay type: biochemical
Settings: EC50 for AMPK activation, ELISA
Method in brief: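 Activation by each compound is measured using a conventional commercial immunoassay kit.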

EC50 [µM] | SMILES
< 0.5 | O=C(NC1CCN(Cc2ccc(N3CCCC3)cc2)CC1)c1ccc(C(=O)N2CCC(Oc3ccc(S(=O)(=O)C4CC4)cc3)CC2)nc1 [Compound 248, 6-(4-(4-(cyclopropylsulfonyl)phenoxy)piperidine-1-carbonyl)-N-(1-(4-(pyrrolidin-1-yl)benzyl)piperidin-4-yl)nicotinamide]
< 0.5 | O=C(NC1CCN(Cc2ccc(OC(F)(F)F)cc2)CC1)c1ccc(C(=O)N2CCC(Oc3ccc(S(=O)(=O)C4CC4)cc3)CC2)nc1 [Compound 249, 6-(4-(4-(cyclopropylsulfonyl)phenoxy)piperidine-1-carbonyl)-N-(1-(4-(trifluoromethoxy)benzyl)piperidin-4-yl)nicotinamide]
< 0.5 | CS(=O)(=O)c1ccc(N2CCN(C(=O)c3ccc(C(=O)NC4CCN(Cc5ccc(C#N)cc5)CC4)nc3)CC2)cc1 [Compound 250, N-(1-(4-cyanobenzyl)piperidin-4-yl)-5-(4-(4-(methylsulfonyl)phenyl)piperazine-1-carbonyl)picolinamide]
< 0.5 | CC(C)S(=O)(=O)c1ccc(N2CCN(C(=O)c3ccc(C(=O)NC4CCN(Cc5ccc(C#N)cc5)CC4)nc3)CC2)cc1 [Compound 251, N-(1-(4-cyanobenzyl)piperidin-4-yl)-5-(4-(4-(isopropylsulfonyl)phenyl)piperazine-1-carbonyl)picolinamide]
< 0.5 | N#Cc1ccc(CN2CCC(NC(=O)c3ccc(C(=O)N4CCN(c5ccc(S(=O)(=O)C6CC6)cc5)CC4)cn3)CC2)cc1 [Compound 256, N-(1-(4-cyanobenzyl)piperidin-4-yl)-5-(4-(4-(cyclopropylsulfonyl)phenyl)piperazine-1-carbonyl)picolinamide]
< 0.5 | N#Cc1ccc(CN2CCC(NC(=O)c3ccc(C(=O)N4CCN(c5ccc(S(=O)(=O)C(F)(F)F)cc5)CC4)cn3)CC2)cc1 [Compound 257, N-(1-(4-cyanobenzyl)piperidin-4-yl)-5-(4-(4-(trifluoromethylsulfonyl)phenyl)piperazine-1-carbonyl)picolinamide]
< 0.5 | N#Cc1ccc(CN2CCC(NC(=O)c3ccc(C(=O)N4CCN(c5ccc(C(=O)C6CC6)cc5)CC4)cn3)CC2)cc1 [Compound 258, N-(1-(4-cyanobenzyl)piperidin-4-yl)-5-(4-(4-(cyclopropanecarbonyl)phenyl)piperazine-1-carbonyl)picolinamide]
< 0.5 | CC(=O)c1ccc(Oc2ccc(NC(=O)c3ccc(C(=O)N4CCC(Oc5ccc(S(C)(=O)=O)cc5)CC4)cn3)cn2)cc1 [Compound 259, N-(6-(4-acetylphenoxy)pyridin-3-yl)-5-(4-(4-(methylsulfonyl)phenoxy)piperidine-1-carbonyl)picolinamide]
< 0.5 | CCS(=O)(=O)c1ccc(C(=O)C2CCN(C(=O)c3ccc(C(=O)NC4CCN(Cc5ccc(C#N)cc5)CC4)nc3)CC2)cc1 [Compound 260, N-(1-(4-cyanobenzyl)piperidin-4-yl)-5-(4-(4-(ethylsulfonyl)benzoyl)piperidine-1-carbonyl)picolinamide]
< 0.5 | CS(=O)(=O)c1ccc(OC2CCN(C(=O)c3ccc(C(=O)Nc4ccc(S(=O)(=O)c5ccc(F)cc5)nc4)nc3)CC2)cc1 [Compound 261, N-(6-(4-fluorophenylsulfonyl)pyridin-3-yl)-5-(4-(4-(methylsulfonyl)phenoxy)piperidine-1-carbonyl)picolinamide]
< 0.5 | N#Cc1ccc(CN2CCC(NC(=O)c3ccc(C(=O)N4CCC(S(=O)(=O)c5ccc(F)cc5)CC4)cn3)CC2)cc1 [Compound 262, N-(1-(4-cyanobenzyl)piperidin-4-yl)-5-(4-(4-fluorophenylsulfonyl)piperidine-1-carbonyl)picolinamide]
< 0.5 | N#Cc1ccc(CN2CCC(NC(=O)c3ccc(C(=O)N4CCN(c5ccc(C(=O)C(F)(F)F)cc5)CC4)cn3)CC2)cc1 [Compound 263, N-(1-(4-cyanobenzyl)piperidin-4-yl)-5-(4-(4-(2,2,2-trifluoroacetyl)phenyl)piperazine-1-carbonyl)picolinamide]
5 to 10 | O=C(NC1CCN(Cc2ccccc2)CC1)c1ccc(C(=O)NC2CCN(Cc3ccccc3)CC2)nc1 [Compound 264, N2,N5-bis(1-benzylpiperidin-4-yl)pyridine-2,5-dicarboxamide]
1 to 5 | N#Cc1ccc(CN2CCC(NC(=O)c3ccc(N4CCCC(Oc5ccc(C#N)cc5)C4)cn3)CC2)cc1 (stereo not drawn) [Compound 265, N-(1-(4-cyanobenzyl)piperidin-4-yl)-5-(3-(4-cyanophenoxy)piperidin-1-yl)picolinamide]
< 0.5 | N#Cc1ccc(CN2CCC(NC(=O)c3ccc(N4CCC(C(=O)c5ccc(Cl)cc5)CC4)cn3)CC2)cc1 [Compound 266, 5-(4-(4-chlorobenzoyl)piperidin-1-yl)-N-(1-(4-cyanobenzyl)piperidin-4-yl)picolinamide]
< 0.5 | N#Cc1ccc(CN2CCC(NC(=O)c3ccc(NC4CCN(c5ccc(C#N)cc5)CC4)cn3)CC2)cc1 [Compound 267, N-(1-(4-cyanobenzyl)piperidin-4-yl)-5-(1-(4-cyanophenyl)piperidin-4-ylamino)picolinamide]
< 0.5 | CC(C)(c1ccc(F)cc1)N1CCN(C(=O)c2ccc(C(=O)NC3CCN(Cc4ccc(C#N)cc4)CC3)nc2)CC1 [Compound 268, N-(1-(4-cyanobenzyl)piperidin-4-yl)-5-(4-(2-(4-fluorophenyl)propan-2-yl)piperazine-1-carbonyl)picolinamide]
< 0.5 | N#Cc1ccc(CN2CCC(NC(=O)c3ccc(C(=O)N4CCC(Oc5ccncc5)CC4)cn3)CC2)cc1 [Compound 269, N-(1-(4-cyanobenzyl)piperidin-4-yl)-5-(4-(pyridin-4-yloxy)piperidine-1-carbonyl)picolinamide]
< 0.5 | N#Cc1ccc(CN2CCC(NC(=O)c3ccc(C(=O)N4CC[C@H](Oc5ccc(F)cc5)C4)cn3)CC2)cc1 [Compound 270, (S)—N-(1-(4-cyanobenzyl)piperidin-4-yl)-5-(3-(4-fluorophenoxy)pyrrolidine-1-carbonyl)picolinamide]
< 0.5 | N#Cc1ccc(CN2CCC(NC(=O)c3ccc(C(=O)N4CCC(C(=O)c5ccc(F)cc5F)CC4)cn3)CC2)cc1 [Compound 271, N-(1-(4-cyanobenzyl)piperidin-4-yl)-5-(4-(2,4-difluorobenzoyl)piperidine-1-carbonyl)picolinamide]
< 0.5 | O=C(Nc1ccc(Oc2ccc(F)cc2)nc1)c1ccc(C(=O)N2CCC(C(=O)c3ccc(F)cc3)CC2)cn1 [Compound 272, 5-(4-(4-fluorobenzoyl)piperidine-1-carbonyl)-N-(6-(4-fluorophenoxy)pyridin-3-yl)picolinamide]
< 0.5 | O=C(Nc1ccc(Oc2ccc(F)cc2)nc1)c1ccc(C(=O)N2CCC(Oc3ccc(F)cc3)CC2)cn1 [Compound 273, 5-(4-(4-fluorophenoxy)piperidine-1-carbonyl)-N-(6-(4-fluorophenoxy)pyridin-3-yl)picolinamide]
< 0.5 | COc1ccc(N2CCC(Nc3ccc(C(=O)NC4CCN(Cc5ccc(C#N)cc5)CC4)nc3)CC2)cc1 [Compound 275, N-(1-(4-cyanobenzyl)piperidin-4-yl)-5-(1-(4-methoxyphenyl)piperidin-4-ylamino)picolinamide]
< 0.5 | N#Cc1ccc(CN2CCC(NC(=O)c3ccc(NC4CCN(c5ccc(F)cc5)CC4)cn3)CC2)cc1 [Compound 276, N-(1-(4-cyanobenzyl)piperidin-4-yl)-5-(1-(4-fluorophenyl)piperidin-4-ylamino)picolinamide]
